As a reminder, the AC50 is the midpoint of the concentration-response curve, whichever way the signal moves. For orientation: EC50 means the concentration that produces a half-maximal response. What is called IC50 is the midpoint of a concentration-inhibition curve.

Assay [1] can be described thus: reduced cellular PGC1a acetyl-lysine signal – cell-based, cherry-picked samples, dose response (AID 720514).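 Note: potency may reflect raised or lowered acetylation signal.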 The format is functional.
The target of a further assay is Cytochrome P450 3A4 (Homo sapiens, UniProt P08684). The note with it: Potency.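 Note: confirmatory qHTS run detecting inhibitors and substrates of CYP3A4.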
Chain of Cytochrome P450 3A4 (P08684 whole entry): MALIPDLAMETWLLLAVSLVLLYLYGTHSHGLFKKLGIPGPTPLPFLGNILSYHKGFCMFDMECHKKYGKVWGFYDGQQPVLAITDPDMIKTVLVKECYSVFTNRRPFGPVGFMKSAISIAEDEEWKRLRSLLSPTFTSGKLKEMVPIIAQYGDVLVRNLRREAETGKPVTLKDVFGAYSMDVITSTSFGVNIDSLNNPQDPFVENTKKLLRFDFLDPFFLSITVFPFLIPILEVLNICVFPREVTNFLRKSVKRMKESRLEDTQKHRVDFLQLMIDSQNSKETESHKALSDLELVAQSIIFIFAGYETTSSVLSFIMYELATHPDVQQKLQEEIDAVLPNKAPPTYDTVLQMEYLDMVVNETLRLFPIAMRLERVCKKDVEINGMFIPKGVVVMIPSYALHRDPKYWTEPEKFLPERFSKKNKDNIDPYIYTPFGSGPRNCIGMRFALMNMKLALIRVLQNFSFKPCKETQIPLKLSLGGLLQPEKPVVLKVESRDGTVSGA
The nature of assay [2]: cells. The format is functional, cell-based.
Assay [3] in a line: cells. The format is functional, cell-based. This is another data set of the same source.
Assay [4] is described as follows: NIH-3T3 fibroblast cytotoxicity, dose response, cytotoxicity control, cell-based, fluorescence, Alamar Blue, secondary assay (AID 2327).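 Note: NIH-3T3 mouse fibroblasts cultured with fluconazole at 8 µg/mL.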 The assay is classed as functional. (In general: The colour change of resazurin is a common sign of viable cells or microbes.)
Assay [5] can be described thus: fluconazole-exposed Candida albicans growth modulators – fluorescence, retest, confirmation (AID 2467). The assay is classed as functional, cell-based.
Assay [6] is described as follows: Trypanosoma cruzi growth suppression in host cells – NIH3T3 host cells, beta-gal luminescence, confirmation (AID 2044).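 Note: intracellular parasites grown in NIH/3T3 mouse fibroblasts as host cells; luminescent beta-galactosidase reporter signal from transgenic T. cruzi replicating inside host cells; inhibitors lower the luminescence signal.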 The format is functional, cell-based.
The nature of assay [7]: NIH3T3 cell viability loss – ATP luminescence, mouse fibroblasts, counter-screen, dose response (AID 2010).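 Note: cells exposed to compound for about 90 hours before reading.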 The format is functional, cell-based.
For assay [8], the target named is T1, DNA repair protein RAD52 homolog (Homo sapiens, UniProt P43351).
T1 sequence (P43351 whole entry): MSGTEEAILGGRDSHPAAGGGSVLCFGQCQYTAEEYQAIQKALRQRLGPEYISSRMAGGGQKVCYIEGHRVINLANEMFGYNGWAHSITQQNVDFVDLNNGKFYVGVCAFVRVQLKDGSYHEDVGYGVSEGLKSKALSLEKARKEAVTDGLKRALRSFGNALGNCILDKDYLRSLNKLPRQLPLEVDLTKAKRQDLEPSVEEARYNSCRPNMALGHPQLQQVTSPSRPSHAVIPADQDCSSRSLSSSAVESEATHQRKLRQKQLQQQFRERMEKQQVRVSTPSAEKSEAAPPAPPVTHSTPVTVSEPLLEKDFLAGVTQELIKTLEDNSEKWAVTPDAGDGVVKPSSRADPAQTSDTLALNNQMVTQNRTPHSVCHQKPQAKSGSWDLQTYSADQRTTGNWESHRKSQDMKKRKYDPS
The format is functional, biochemical.

Assay [9] deals with T2, Histone-lysine N-methyltransferase NSD2 (Homo sapiens, UniProt O96028).
T2 sequence (O96028 whole entry): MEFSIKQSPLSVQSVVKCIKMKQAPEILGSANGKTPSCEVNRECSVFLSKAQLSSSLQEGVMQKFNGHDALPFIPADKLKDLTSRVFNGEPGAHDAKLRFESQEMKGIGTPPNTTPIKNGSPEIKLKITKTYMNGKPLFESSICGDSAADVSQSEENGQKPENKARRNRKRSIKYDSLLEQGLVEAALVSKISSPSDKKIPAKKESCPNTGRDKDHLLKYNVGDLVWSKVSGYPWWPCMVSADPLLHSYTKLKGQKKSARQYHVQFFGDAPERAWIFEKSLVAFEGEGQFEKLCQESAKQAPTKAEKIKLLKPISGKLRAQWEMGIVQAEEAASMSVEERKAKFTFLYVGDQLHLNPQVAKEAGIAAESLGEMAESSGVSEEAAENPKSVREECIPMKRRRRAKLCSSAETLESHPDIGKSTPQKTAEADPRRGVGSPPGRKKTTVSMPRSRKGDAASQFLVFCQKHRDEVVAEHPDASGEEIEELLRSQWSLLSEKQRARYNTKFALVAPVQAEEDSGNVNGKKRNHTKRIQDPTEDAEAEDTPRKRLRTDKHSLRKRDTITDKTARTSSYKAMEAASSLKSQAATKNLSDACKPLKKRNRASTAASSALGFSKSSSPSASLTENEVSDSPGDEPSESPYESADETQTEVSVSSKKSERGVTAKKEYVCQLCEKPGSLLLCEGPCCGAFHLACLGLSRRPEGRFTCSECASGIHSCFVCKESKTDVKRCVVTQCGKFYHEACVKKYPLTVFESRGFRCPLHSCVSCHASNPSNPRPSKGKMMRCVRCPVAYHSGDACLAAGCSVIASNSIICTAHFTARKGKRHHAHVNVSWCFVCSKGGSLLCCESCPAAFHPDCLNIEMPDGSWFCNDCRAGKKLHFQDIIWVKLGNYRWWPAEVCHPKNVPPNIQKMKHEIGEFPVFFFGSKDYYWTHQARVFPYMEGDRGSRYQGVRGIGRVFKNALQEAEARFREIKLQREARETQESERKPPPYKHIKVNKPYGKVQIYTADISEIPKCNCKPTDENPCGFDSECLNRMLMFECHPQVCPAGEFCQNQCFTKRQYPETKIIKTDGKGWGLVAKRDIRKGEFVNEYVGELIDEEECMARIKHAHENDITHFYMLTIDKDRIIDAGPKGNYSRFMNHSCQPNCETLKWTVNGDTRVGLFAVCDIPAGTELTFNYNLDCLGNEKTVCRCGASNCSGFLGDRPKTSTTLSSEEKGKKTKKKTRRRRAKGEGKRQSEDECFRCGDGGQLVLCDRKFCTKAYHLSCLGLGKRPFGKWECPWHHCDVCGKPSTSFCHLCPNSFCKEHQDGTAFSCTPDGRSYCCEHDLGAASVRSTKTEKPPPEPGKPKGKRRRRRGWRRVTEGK
The format is biochemical.

Assay [10] can be described thus: microbe, parasite or virus in culture. The assay is classed as functional. The note with it: Mycobacterium tuberculosis.
The nature of assay [11]: HEK-293T viability loss after treatment – luminescence, T-cell screen hits, cytotoxicity control for TCR NF-kB inhibitor project, dose response (AID 489026).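 Note: cells exposed to compound about 14 hours before the viability readout.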 The format is functional, cell-based.
In assay [12] the target is T3, Heat shock factor protein 1 (Mus musculus, UniProt P38532).
T3 sequence (P38532 whole entry): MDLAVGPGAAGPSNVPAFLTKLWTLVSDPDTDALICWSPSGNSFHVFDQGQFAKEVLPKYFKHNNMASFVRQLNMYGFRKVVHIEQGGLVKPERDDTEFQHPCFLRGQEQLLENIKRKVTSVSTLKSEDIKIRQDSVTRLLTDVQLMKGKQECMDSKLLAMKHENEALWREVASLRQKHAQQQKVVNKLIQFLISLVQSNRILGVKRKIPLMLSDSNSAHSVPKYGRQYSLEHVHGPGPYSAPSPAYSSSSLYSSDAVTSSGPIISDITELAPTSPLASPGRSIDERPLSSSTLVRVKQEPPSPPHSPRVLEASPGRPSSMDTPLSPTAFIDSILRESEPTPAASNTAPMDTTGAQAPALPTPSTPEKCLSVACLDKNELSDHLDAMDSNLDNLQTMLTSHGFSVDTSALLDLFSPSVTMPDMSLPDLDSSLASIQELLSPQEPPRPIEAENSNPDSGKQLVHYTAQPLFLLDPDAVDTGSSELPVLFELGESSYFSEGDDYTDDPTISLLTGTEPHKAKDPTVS
Nature of the assay: enhancement of HSF1-driven luciferase signal – cell-based, NIH3T3, luminescence, dose retest, confirmation (AID 435004).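 Note: stress induced by proteasome inhibitor MG132 added 30 min after compound; luciferase reporter driven by HSF1 response element in NIH3T3 cells; actives raise luminescence as potentiators of the MG132 stress response.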 The format is functional.

The target of assay [13] is T4, Replicative DNA helicase DnaB (Mycobacterium tuberculosis, UniProt P9WMR3).
T4 sequence (P9WMR3 whole entry): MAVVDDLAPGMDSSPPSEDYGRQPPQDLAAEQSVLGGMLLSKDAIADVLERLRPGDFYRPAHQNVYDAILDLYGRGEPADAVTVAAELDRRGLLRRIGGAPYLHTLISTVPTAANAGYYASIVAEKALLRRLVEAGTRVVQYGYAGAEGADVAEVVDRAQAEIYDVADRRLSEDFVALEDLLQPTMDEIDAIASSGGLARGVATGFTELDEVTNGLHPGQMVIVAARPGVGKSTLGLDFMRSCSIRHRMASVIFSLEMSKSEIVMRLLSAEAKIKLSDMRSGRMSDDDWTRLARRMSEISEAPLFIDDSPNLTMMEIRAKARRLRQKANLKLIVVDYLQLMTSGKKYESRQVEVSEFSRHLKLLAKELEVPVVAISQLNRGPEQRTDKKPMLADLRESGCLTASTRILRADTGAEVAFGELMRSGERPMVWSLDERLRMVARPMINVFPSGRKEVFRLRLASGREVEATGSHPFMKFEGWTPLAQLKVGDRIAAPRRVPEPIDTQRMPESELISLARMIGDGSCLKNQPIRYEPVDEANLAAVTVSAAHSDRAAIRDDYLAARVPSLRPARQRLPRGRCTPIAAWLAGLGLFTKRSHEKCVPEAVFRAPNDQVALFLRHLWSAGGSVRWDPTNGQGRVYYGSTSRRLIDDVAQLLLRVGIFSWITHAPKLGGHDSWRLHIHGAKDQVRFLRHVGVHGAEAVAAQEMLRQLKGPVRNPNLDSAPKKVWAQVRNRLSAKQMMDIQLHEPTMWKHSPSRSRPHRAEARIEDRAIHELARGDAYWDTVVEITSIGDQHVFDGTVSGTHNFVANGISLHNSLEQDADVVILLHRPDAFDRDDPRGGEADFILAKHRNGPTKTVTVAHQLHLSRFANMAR
Nature of the assay: DnaB intein splicing inhibitors, dose response, biochemical, cell-free fluorescence (AID 449749). The assay is classed as functional.

A further assay concerns the target T5, Protein RecA (Mycobacterium tuberculosis, UniProt P9WHJ3).
T5 sequence (P9WHJ3 whole entry): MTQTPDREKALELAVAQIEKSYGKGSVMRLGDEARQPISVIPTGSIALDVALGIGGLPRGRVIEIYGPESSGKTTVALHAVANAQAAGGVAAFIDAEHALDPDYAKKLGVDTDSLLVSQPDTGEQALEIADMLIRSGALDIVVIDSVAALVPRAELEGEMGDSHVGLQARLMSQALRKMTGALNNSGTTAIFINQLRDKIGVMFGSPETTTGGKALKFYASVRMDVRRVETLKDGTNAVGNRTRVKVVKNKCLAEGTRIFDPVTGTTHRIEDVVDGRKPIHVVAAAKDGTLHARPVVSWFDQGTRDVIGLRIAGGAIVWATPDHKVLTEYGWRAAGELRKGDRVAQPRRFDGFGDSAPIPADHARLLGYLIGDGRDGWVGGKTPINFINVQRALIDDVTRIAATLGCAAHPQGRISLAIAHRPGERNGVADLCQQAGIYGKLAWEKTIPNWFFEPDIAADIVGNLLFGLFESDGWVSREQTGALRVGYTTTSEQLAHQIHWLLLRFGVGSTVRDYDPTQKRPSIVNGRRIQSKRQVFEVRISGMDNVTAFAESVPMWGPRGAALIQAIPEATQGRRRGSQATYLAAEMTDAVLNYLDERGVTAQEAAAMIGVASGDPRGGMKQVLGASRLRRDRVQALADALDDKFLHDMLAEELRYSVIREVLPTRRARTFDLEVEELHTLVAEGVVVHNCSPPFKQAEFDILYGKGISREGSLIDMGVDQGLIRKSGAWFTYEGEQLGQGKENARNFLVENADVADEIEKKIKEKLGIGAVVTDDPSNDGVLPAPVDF
Put plainly: Fluorescence Cell-Free Homogeneous Dose Retest to Identify Inhibitors of RecA-Intein Splicing Activity. [Related pubchem assays (depositor defined):AID2097, AID2223, AID489010, AID492950]. The assay is classed as functional.

Molecules are shown by their SMILES. Calls of active or inactive are those of the source. Cut-off read from the data, not from the text of the source, for most assays here: actives have a measured EC50 and inactives only a lower limit.

`C[C@@H]1CN([C@H](C)CO)C(=O)c2cc(C3=CCCCC3)cnc2O[C@@H]1CN(C)Cc1ccccc1`: the AC50 in assay [1] was 28 µM (active).

Turning to `Cc1nc(NC2CCCCC2)c2nc(-c3ccccc3)n(CCCN3CCOCC3)c2n1`, the concentration at half-maximal activity (AC50) at Cytochrome P450 3A4 was 5.01 µM (inconclusive).

As to `CC(=O)Oc1ccc2c(c1C(C)C)CCC1C(C)(C)CCC[C@@]21C` (stereo not given in full), the AC50 on Cytochrome P450 3A4 was 39.8 µM (inconclusive).

Consider `FC(F)(F)c1ccc(CN2C[C@@H]3C(c4ccc(Cl)nc4)C4(c5ccccc5)CC3(C4)[C@H]2c2ccccc2)cc1` (stereo not given in full), for which, on Cytochrome P450 3A4, the AC50 is 20 µM (inconclusive).

For `O=C(c1ccc(Cl)cc1)C(Cn1cncn1)C(Sc1ccccc1)c1ccccc1` (stereo not given), in [1], the AC50 is 13 µM (active).

As to `CCCCCCn1nc(C(=O)Nc2nc3c(s2)CCCC3)c2ccccc2c1=O`, the EC50 in the assay “cells [2]” was > 350 µM (not active); in the assay “cells [3]” it was 115 µM (active).

Regarding `CCN(CCCNC(=O)CCNC(=O)Cn1ccc2ccccc2c1=O)c1ccccc1`, the EC50 in the assay “cells [2]” and in the assay “cells [3]” was > 350 µM (not active) each time.

As for `CCOC(=O)c1sc(=S)n(-c2ccccc2)c1C`, the concentration for a half-maximal effect (EC50) in “cells [2]” and in the assay “cells [3]” was > 350 µM (not active) throughout.

For `CC(=O)N1CCC(=NNC(=O)c2cc3ccccc3cc2O)CC1`, the EC50 in assay [4] is > 150 µM (inactive); in “cells [2]”, > 350 µM (not active); in [5], > 38 µM (not active); in the assay “cells [3]” it was 22.2 µM (active).

For the compound `CC1CCN(C(=O)CS(=O)(=O)Cc2ccccc2)CC1`, the EC50 was > 350 µM (not active) in the assay “cells [2]” and 273 µM (active) in the assay “cells [3]”.

For the compound `CCN(CC)CCNc1ncnc2c1sc1nc(N3CCCC3)c3c(c12)CC(C)(C)OC3`, the EC50 in assay [6] is 2.86 µM (active); in [7] it was 10.2 µM (active). Besides, the AC50 in assay [8] is 4.72 µM (active); in assay [9] it was 19.7 µM (active).

In the case of `Cc1cc(C)cc(N(CC(=O)Nc2ccccc2C(=O)N2CCOCC2)S(C)(=O)=O)c1`, the concentration for a half-maximal effect (EC50) in “cells [2]” and in the assay “cells [3]” was > 350 µM (not active) throughout.

Turning to `CCCSc1nnc(Sc2nnnn2-c2ccccc2)s1`, the CC50 in assay [10] was 6.83 µM (active). Further, the IC50 in [11] was > 80 µM (inactive). In addition, the results for the concentration for a half-maximal effect (EC50) (in assay [12]; at Protein RecA) were 22 µM (active) and 14.5 µM (active), respectively. The results for the AC50 in [13] and in assay [1] were 12.5 µM (active) and 0.771 µM (active), respectively.

On to `COC(=O)[C@@H]1C[C@H]2CC[C@H](O)C[C@H]2N1Cc1ccc(C)s1`, for which the concentration at half-maximal activity (AC50) at Cytochrome P450 3A4 is 15.8 µM (inconclusive).

For the origin of these results see ChEMBL document CHEMBL1201862, “PubChem BioAssay data set” (2004).
